This note sets out measurements from patent US20180273531A1, “PYRIMIDINE COMPOUND AND MEDICAL USE THEREOF” (Japan Tobacco Inc., priority 2004, published 2018).

As a reminder, the IC50 is the point on the concentration scale where inhibition reaches its midpoint. Read a low IC50 as greater potency. The fold induction is the ratio of treated to control signal. Higher therefore signals a large rise in signal.

A value given as a limit tells only on which side of the number the result lay.

Format in all cases: cell-based
The test system of experiment [1] is Renal cancer cell line ACHN cell. The experiment is described as follows: Growth inhibitory effect against cancer cell lines (3H-thymidine uptake), ACHN. As to conditions: Homo sapiens, ACHN. Here is the method: (§1) Renal cancer cell line ACHN cell or colorectal cancer cell line HT-29 cells were cultured in a 96 well plate at 1.0×10^4 cells/90 μL/well for 24 hrs, then a test substance dissolved in DMSO (dimethyl sulfoxide) was added. After 18 hrs, ^3H-thymidine (0.25 μCi/well) was added and the cells were cultured for 6 hrs. Using a cell harvester, the cells were recovered on a UniFilter-96 GF/B glass filter and the ^3H radioactivity uptaken by the cells was measured by TopCount (Packard). As a control, DMSO was used and the activity of the test substance was expressed in the concentration (IC50) necessary for inhibiting ^3H radioactivity uptaken by the cell to 50% of that of the control group. The measurements were made in triplicate.

For a further experiment, the system named is p15 protein. The experiment is described as follows: Evaluation of p15 induction activity (Western blotting). As to conditions: test substance 0.1 μM, 24 hrs, ACHN cells or HT-29 cells, compared to DMSO, n=2. Here is the method:
ACHN cells or HT-29 cells were cultured in a 6 well plate at 2.5×10^5 cells/1.8 mL/well for 24 hrs, then a test substance (0.1 μM) dissolved in DMSO was added. After 24 hrs, cells were detached using trypsin-EDTA (ethylene diamine tetraacetic acid) and solubilized with NuPAGE LDS sample buffer (Invitrogen). Using an RC DC protein assay kit (BIO-RAD), the protein concentration of the sample was quantitated, and a sample in an amount corresponding to 10 μg of BSA (bovine serum albumin) was analyzed by Western blotting using an anti-p15 antibody. The density of the band stained with the anti-p15 antibody was measured by a densitometer to quantify the amount of p15 protein. As a control, DMSO was used and the test was performed with n=2 and the average protein amount was determined.
On the technique in general: In western blotting, separated proteins are transferred to a membrane and probed.

Experiment [2] relates to colorectal cancer cell line HT-29 cells. As to the kind of experiment: Growth inhibitory effect against cancer cell lines (3H-thymidine uptake), HT-29. The following applies: Homo sapiens, HT-29, inhibition of 3H-thymidine uptake; test substance 18 hrs, then 3H-thymidine 6 hrs; triplicate. As for the experimental part: as §1

Take `Cc1ccccc1-n1c(=O)n(C2CC2)c(=O)c2c(Nc3ccc(N(C)C)cc3)cc(=O)n(C)c21` [Example 1-106]: the 50% inhibitory concentration (IC50) in experiment [1] and in experiment [2] was 0.1 to 1 µM in each case. In the experiment with p15 protein, this molecule had a fold induction at 0.1 µM of no less than 1.5.

For the molecule `Cn1c(=O)cc(Nc2ccc(Br)cc2)c2c(=O)n(C3CC3)c(=O)n(-c3ccccc3F)c21` [Example 1-113], the IC50 in experiment [1] and in experiment [2] was 0.1 to 1 µM throughout. This molecule returned a fold induction at 0.1 µM with p15 protein of no less than 1.5.

In the case of `Cn1c(=O)cc(Nc2ccc(Br)cc2Cl)c2c(=O)n(C3CC3)c(=O)n(-c3ccccc3)c21` [Example 1-176], the results for the concentration for half-maximal inhibition (IC50) in experiment [1] and in experiment [2] were 0.1 to 1 µM and 0.01 to 0.1 µM, respectively. Further, the fold induction at 0.1 µM in the experiment on p15 protein was no less than 1.5.

As for `Cn1c(=O)cc(Nc2ccc(Br)cc2F)c2c(=O)n(C3CC3)c(=O)n(-c3ccc(O)cc3)c21` [Example 1-188], the IC50 fell in the range of 0.1 to 1 µM in experiment [1] and 0.01 to 0.1 µM in experiment [2]. In the experiment on p15 protein, this molecule showed a fold induction at 0.1 µM of no less than 1.5.

As to `COc1cccc(-n2c(=O)n(C3CC3)c(=O)c3c(Nc4ccc(Br)cc4F)cc(=O)n(C)c32)c1` [Example 1-191], the IC50 in experiment [1] was 0.1 to 1 µM; in experiment [2] it was 0.01 to 0.1 µM. The molecule further displayed a fold induction at 0.1 µM in the experiment on p15 protein of no less than 1.5.

Take `CN(C)c1ccc(Nc2cc(=O)n(C)c3c2c(=O)n(C2CC2)c(=O)n3-c2ccccc2)c(F)c1` [Example 1-192]: the IC50 in experiment [1] is 0.1 to 1 µM; in experiment [2], 0.01 to 0.1 µM. The same molecule yielded a fold induction at 0.1 µM in the experiment on p15 protein of no less than 1.5.

With `Cn1c(=O)cc(Nc2ccc(Br)cc2F)c2c(=O)n(C3CC3)c(=O)n(-c3cccc(N4CCOCC4)c3)c21` [Example 1-193], the IC50 was 0.1 to 1 µM in experiment [1] and less than 0.01 µM in experiment [2]. The same molecule showed a fold induction at 0.1 µM with p15 protein of no less than 1.5.

As for `CN(C)c1cccc(-n2c(=O)n(C3CC3)c(=O)c3c(Nc4ccc(Br)cc4F)cc(=O)n(C)c32)c1` [Example 1-199], the IC50 was 0.1 to 1 µM in experiment [1] and 0.01 to 0.1 µM in experiment [2]. The molecule also showed a fold induction at 0.1 µM in the experiment with p15 protein of no less than 1.5.

Take `CCCCC(=O)NCC(=O)Nc1cccc(-n2c(=O)n(C3CC3)c(=O)c3c(Nc4ccc(Br)cc4F)cc(=O)n(C)c32)c1` [Example 1-276]: the half-maximal inhibitory concentration (IC50) in experiment [1] was in the range of 0.1 to 1 µM; in experiment [2], 0.01 to 0.1 µM.

For `CCC(=O)Nc1cccc(-n2c(=O)n(C3CC3)c(=O)c3c(Nc4ccc(Br)cc4F)cc(=O)n(C)c32)c1` [Example 1-278], the concentration for half-maximal inhibition (IC50) in experiment [1] is 0.1 to 1 µM; in experiment [2] it was 0.01 to 0.1 µM.

Regarding `Cn1c(=O)cc(Nc2ccc(Br)cc2)c2c(=O)n(C3CC3)c(=O)n(-c3cccc(NS(C)(=O)=O)c3)c21` [Example 1-304], the results for the concentration for half-maximal inhibition (IC50) in experiment [1] and in experiment [2] were 0.1 to 1 µM and 0.01 to 0.1 µM, respectively.

For the molecule `CCOC(=O)Nc1cccc(-n2c(=O)n(C3CC3)c(=O)c3c(Nc4ccc(Br)cc4F)cc(=O)n(C)c32)c1` [Example 1-308], the values for the IC50 in experiment [1] and in experiment [2] were 0.1 to 1 µM and 0.01 to 0.1 µM, respectively.

In the case of `Cn1c(=O)cc(Nc2ccc(Br)cc2F)c2c(=O)n(C3CC3)c(=O)n(-c3cccc(NS(=O)(=O)c4cccnc4)c3)c21` [Example 1-335], the IC50 is 0.1 to 1 µM in experiment [1] and 0.01 to 0.1 µM in experiment [2].

Consider `Cn1c(=O)cc(Nc2ccc3sccc3c2F)c2c(=O)n(C3CC3)c(=O)n(-c3ccccc3)c21` [Example 1-343], for which the IC50 lay within 0.1 to 1 µM in experiment [1] and 0.01 to 0.1 µM in experiment [2].

For the molecule `Cc1c(=O)n(C)c(Nc2ccc(Br)cc2)c2c(=O)n(C3CC3)c(=O)n(-c3ccccc3)c12` [Example 3-1], the IC50 in experiment [1] and in experiment [2] was 0.1 to 1 µM throughout.

In the case of `Cc1c(=O)n(C)c(Nc2ccc(Br)cc2F)c2c(=O)n(C3CC3)c(=O)n(-c3ccc([N+](=O)[O-])cc3)c12` [Example 4-5], the IC50 was 0.1 to 1 µM in experiment [1] and 0.01 to 0.1 µM in experiment [2].

As to `CCn1c(=O)c2c(Nc3ccc(I)cc3F)n(C)c(=O)c(C)c2n(-c2cccc(NS(=O)(=O)CC)c2)c1=O` [Example 4-19], the half-maximal inhibitory concentration (IC50) in experiment [1] is 0.01 to 0.1 µM; in experiment [2] it was less than 0.01 µM.

With `CCn1c(=O)c2c(Nc3ccc(I)cc3F)n(C)c(=O)c(C)c2n(-c2cccc(NS(C)(=O)=O)c2)c1=O` [Example 4-20], the IC50 in experiment [1] is 0.01 to 0.1 µM; in experiment [2] it was less than 0.01 µM.

On to `CCc1ccc(Nc2c3c(=O)n(C4CC4)c(=O)n(-c4cccc(NS(C)(=O)=O)c4)c3c(C)c(=O)n2C)c(F)c1` [Example 4-25], for which the 50% inhibitory concentration (IC50) in experiment [1] was 0.01 to 0.1 µM; in experiment [2], less than 0.01 µM.

As for `CCc1ccc(Nc2c3c(=O)n(C4CC4)c(=O)n(-c4cccc(NS(=O)(=O)CC)c4)c3c(C)c(=O)n2C)c(F)c1` [Example 4-26], the results for the half-maximal inhibitory concentration (IC50) in experiment [1] and in experiment [2] were 0.01 to 0.1 µM and less than 0.01 µM, respectively.

On to `Cc1c(=O)n(C)c(Nc2ccc(I)cc2F)c2c(=O)n(C3CC3)c(=O)n(-c3cccc(NS(=O)(=O)N(C)C)c3)c12` [Example 4-33], for which the IC50 in experiment [1] and in experiment [2] was less than 0.01 µM in each case.

`Cc1c(=O)n(C)c(Nc2ccc(I)cc2F)c2c(=O)n(C3CC3)c(=O)n(-c3cccc(NS(=O)(=O)N4CCOCC4)c3)c12` [Example 4-34]: the IC50 in experiment [1] and in experiment [2] was less than 0.01 µM each time.

On to `CC(=O)Nc1cc(Cl)cc(-n2c(=O)n(C3CC3)c(=O)c3c(Nc4ccc(I)cc4F)n(C)c(=O)c(C)c32)c1` [Example 4-37], for which the 50% inhibitory concentration (IC50) in experiment [1] fell in the range of 0.1 to 1 µM; in experiment [2], 0.01 to 0.1 µM.

Consider `C#Cc1ccc(Nc2c3c(=O)n(CC)c(=O)n(-c4cccc(NS(=O)(=O)CC)c4)c3c(C)c(=O)n2C)c(F)c1` [Example 4-40], for which the IC50 is 0.01 to 0.1 µM in experiment [1] and less than 0.01 µM in experiment [2].

Regarding `CCc1ccc(Nc2c3c(=O)n(CC)c(=O)n(-c4cccc(NS(=O)(=O)CC)c4)c3c(C)c(=O)n2C)c(F)c1` [Example 4-41], the half-inhibitory concentration (IC50) in experiment [1] and in experiment [2] was 0.01 to 0.1 µM each time.

`C#Cc1ccc(Nc2c3c(=O)n(CC)c(=O)n(-c4cccc(NS(C)(=O)=O)c4)c3c(C)c(=O)n2C)c(F)c1` [Example 4-42]: the IC50 was 0.01 to 0.1 µM in experiment [1] and less than 0.01 µM in experiment [2].

Consider `CCc1ccc(Nc2c3c(=O)n(CC)c(=O)n(-c4cccc(NS(C)(=O)=O)c4)c3c(C)c(=O)n2C)c(F)c1` [Example 4-44], for which the results for the IC50 in experiment [1] and in experiment [2] were 0.1 to 1 µM and 0.01 to 0.1 µM, respectively.

As for `C#Cc1ccc(Nc2c3c(=O)n(C4CC4)c(=O)n(-c4cccc(NC(C)=O)c4)c3c(C)c(=O)n2CC)c(F)c1` [Example 4-46], the results for the concentration for half-maximal inhibition (IC50) in experiment [1] and in experiment [2] were 0.1 to 1 µM and 0.01 to 0.1 µM, respectively.

For `CC#Cc1ccc(Nc2c3c(=O)n(C4CC4)c(=O)n(-c4cccc(NC(C)=O)c4)c3c(C)c(=O)n2C)c(F)c1` [Example 4-52], the IC50 in experiment [1] and in experiment [2] was 0.1 to 1 µM throughout.

As for `Cc1c(=O)n(C)c(Nc2ccc(I)cc2F)c2c(=O)n(C3CC3)c(=O)n(-c3cccc(NC(=O)c4cccn4C)c3)c12` [Example 4-87], the IC50 in experiment [1] lay in the range of 0.1 to 1 µM; in experiment [2] it was 0.01 to 0.1 µM.

As for `Cc1c(=O)n(C)c(Nc2ccc(I)cc2F)c2c(=O)n(C3CC3)c(=O)n(-c3ccc(CC(=O)O)cc3)c12` [Example 4-94], the values for the IC50 in experiment [1] and in experiment [2] were 0.1 to 1 µM and 0.01 to 0.1 µM, respectively.

On to `Cc1c(=O)n(C)c(Nc2ccc(I)cc2F)c2c(=O)n(C3CC3)c(=O)n(-c3cccc(NC(=O)NCCO)c3)c12` [Example 4-95], for which the IC50 in experiment [1] is 0.1 to 1 µM; in experiment [2], 0.01 to 0.1 µM.

`Cc1c(=O)n(C)c(Nc2ccc(I)cc2F)c2c(=O)n(C3CC3)c(=O)n(-c3cccc(NS(=O)(=O)N(CCO)C(=O)NCCO)c3)c12` [Example 4-96]: the concentration for half-maximal inhibition (IC50) was 0.1 to 1 µM in experiment [1] and 0.01 to 0.1 µM in experiment [2].
